Drawing on PubChem BioAssay AID602211 (Sanford-Burnham Center for Chemical Genomics, 2012), this text covers IC50 for 20 compounds.

The source made the active and inactive calls.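 How the source made its calls: active means mean IC50 at or below 10 µM; inactive means the rest.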 Some results are limits rather than exact numbers.

This assay deals with H9c2 cardiomyocytes, H2O2 protection, ATPLite viability, 2 h. Briefly: H2O2-induced H9c2 cell death suppression – ATPLite luminescence, set 2, dose response (AID 602211).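 Further: potency is for protection so actives keep ATP signal up against peroxide killing.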
Regarding `O=C(NCC(=O)N(Cc1cccs1)C(C(=O)NC1CCCC1)c1ccco1)c1cccs1` (stereo not given), the IC50 was 6.37 µM.

Turning to `COc1ccc(-c2ccc3c(c2)S(=O)(=O)c2cccc(C(=O)NC[C@@H]4CCCO4)c2C3=O)cc1OC`, the IC50 is 4.98 µM.

Regarding `COc1ccc(-c2cc(C(=O)Nc3ccccc3N3CCOCC3)c3ccccc3n2)cc1OC`, the IC50 is 4.52 µM. `COc1ccc(C(=O)Nc2cc(C)nn2-c2nc3ccccc3[nH]2)c(OC)c1`: the IC50 is 10.9 µM (inactive).

`CCOC(=O)c1cc2c(=O)n3ccccc3nc2n(Cc2ccco2)c1=NC(=O)c1cccnc1`: the IC50 was 19 µM (inactive). For `Cc1nnc2ccc(-c3cccc(NC(=O)c4ccc(Cl)nc4)c3)nn12`, the IC50 is 2.62 µM. As for `CCOc1ccccc1NC(=O)c1oc2ccccc2c1NC(=O)C1CCCO1` (stereo not given), the figure is 4.13 µM. As for `C=CCOC(=O)C1=C[C@H](c2cn(C(C)=O)c3ccccc23)C[C@H](OCc2ccc(CO)cc2)O1`, the figure is 9.81 µM. As for `CC(=O)Nc1cccc(NC(=O)c2cc(-c3cccnc3)nc3ccc(Br)cc23)c1`, the IC50 was 1.3 µM. Under `COc1cc(C(=O)Nc2cccc(-c3nnc(-c4ccco4)o3)c2)ccc1OC(C)=O` stands > 79 µM (inactive); under `COc1cccc(C(=O)Nc2cccc(-c3nnc(-c4ccco4)o3)c2)c1`, > 79 µM (inactive); under `COc1ccc(-c2cc(-c3nnc(COC(=O)C4CC4)o3)c3ccccc3n2)cc1OC`, 4.39 µM. As for `O=C(c1ccco1)N1CCN(C(=O)c2cc(-c3ccncc3)nc3ccc(Br)cc23)CC1`, the figure is 13.8 µM (inactive). As for `CN(C)C(=O)/C=C\c1cn(-c2ccccc2)nc1-c1ccc2c(c1)OCCO2`, the figure is > 79 µM (inactive); as for `COc1cccc(-c2cnc3c(NC=O)cc(-c4cc(C)c(O)c(C)c4)cn23)c1`, 10.2 µM (inactive).

For the compound `O=C(Nc1ccccc1)c1nc[nH]c1C(=O)NCCCCNC(=O)c1[nH]cnc1C(=O)Nc1ccccc1`, the 50% inhibitory concentration (IC50) is 2.04 µM. Under `Nc1nonc1-n1nnc(C(=O)N/N=C/c2ccccn2)c1CNc1ccccc1` stands 16.3 µM (inactive). As to `COc1ccc(-c2csc(NC(=O)c3ccc(OCC(=O)N4CCOCC4)c(OC)c3)n2)cc1OC`, the IC50 was 2.44 µM. On to `Cc1nn(-c2ccccc2)nc1C(=O)Nc1cccc(C(=O)NC2CC2)c1`, for which the IC50 was 4.37 µM.

Take `O=C(NCC(=O)N(Cc1ccccc1)C(C(=O)NC1CCCCC1)c1ccco1)c1ccco1` (stereo not given): the IC50 is 38.7 µM (inactive).
